Measured values published in US9301521B2, “Bee attractants” (priority 2013, dated 2016).

How the values were obtained:
[1] = system: O. lignaria; assay: Field tests with fatty acids on filter papers, apple orchard in Utah; assay type: in vivo, Osmia lignaria; settings: single fatty acid set; for females found in artificial nest sites, range: 9 sample dates; for Cells/replicate / Nests/replicate / Females/date: 400 CE per nest site; for Cells/replicate / Nests/replicate: five replicates; for Females/date: mean ± SE for 9 sample dates
Text: To better understand whether application of one, or some mixture of, free fatty acids to nesting material or artificial nest sites is attractive to O. lignaria, two experimental sets are generated so that one set tests for differences in bee response to each single fatty acid and the other set tests for differences in bee response to mixtures of the fatty acids described above in Table 11. Fatty acids are applied to separate filter papers so that each filter paper contains 200 CE. As a negative control, the volume of ethyl alcohol used for the other samples is applied to its own filter paper. For the experiment in an apple orchard in Utah, each small, corrugated plastic box artificial nest site (20×23×20 cm), with two bundles of 19 paper tubes each, is hung in an apple tree; nest sites are separated by one tree between them within each replicate group. To each nest site, two of the 200 CE impregnated filter papers are applied; thus, a total of 400 CE of the stimulus is present within each nest site. Each filter paper (containing either a single fatty acid, one mixture of fatty acids, or the negative control) is attached using cable ties to the front of one tube in each of the two bundles in each artificial nest site. The filter papers are replaced weekly. Each artificial nest site contains only one type of treatment. For the single fatty acid comparison, artificial nest sites are placed in the orchard in five replicates of the three treatments plus a control (i.e., four nest sites per replicate), with each artificial nest site opening facing southeast. For the mixtures of fatty acids comparison, artificial nest sites are placed in the orchard in five replicates of the four treatments plus a control (i.e., five nest sites per replicate), with each artificial nest site opening facing southeast. Both experimental sets are located in the same orchard where they are intermittently placed but separated by at least two rows of apple trees. A total of 540 female and 1000 male bees are released throughout the orchard at least one tree row from the artificial nest sites using several release box sites (with equal numbers of bees per box). Artificial nest sites are checked daily for the presence of male and female bees and for tubes with completed nests. Tubes with completed nests are removed and are replaced with fresh ones. Later, all nests containing any bee cells are examined with x-radiography to determine number of cells in each nest.

[2] = Evaporation rates of attractants (weight loss of vials); assay type: physicochemical
Protocol: The objective of this experiment is to quantify the loss of the fatty acids and Synthetic Blend via evaporation. Synthetic Blend is prepared as per Example 3. Decanoic acid, dodecanoic acid, and tetradecanoic acid are purchased as per Example 4. Synthetic Blend is a liquid at room temperature. Vials containing between 0.235 and 0.304 grams of either Synthetic Blend or each individual fatty acid are placed in a 40° C. incubator and a ˜30° C. incubator room with a fan and are weighed after 1, 4, 10, 24, 31, 39 and 44 days. Three vials are monitored for each attractant, and the average weight loss is calculated. All samples lose weight faster at 30° C. with airflow compared to 40° C. without airflow. After […] at 30° C. with airflow, Synthetic Blend loses only 0.57% of its weight (see FIG. 2). This loss of mass is caused mostly by evaporation of decanoic acid which comprises approximately 73% of Synthetic Blend. After 24 days, Synthetic Blend loses 9.8% of its mass and after 44 days, 17.2% of its mass. A linear relationship is found between weight loss and days for both environments (see FIG. 3).

[3] = system: O. lignaria female antennae; assay: EAG response to specific fatty acids and mixtures; design: species or system Osmia lignaria; settings: O. lignaria (n = 12); 100 CE
Text: (§1) The objective of this example is to compare antennal responses of three Osmia species (O. lignaria, O. bucephala, and O. cornifrons obtained from near a Pennsylvania apple orchard) to each of three fatty acids, each combined mixture of two acids, and the combined mixture of all acids (see Table 11). Female and male bees are maintained in laboratory cages and fed honey-water ad libitum for four days. On the fourth day, one antenna at a time is removed from each chilled, live female test bee with scissors and placed on the electrode probe of a Syntech EAG (Kirchzarten, Germany). The electrode with the antenna is inserted into a glass tube into which flows humidified air, and into which a stimulus (air, a fatty acid, or fatty acid mixture) is applied.
(§2) Each of the above indicated fatty acids, purchased from Sigma-Aldrich (St. Louis, Mo.), are dissolved in ethyl alcohol at a concentration similar to that used for the Synthetic Blend. Each fatty acid and each mixture (Equistar Chemicals, LP, Houston, Tex.) is evenly applied to a circular filter paper in Petri dish (9 cm) at dose of 100 CE. A 1.5 cm^2 piece of filter paper is cut from the center of the filter paper circle. The piece of filter paper is placed into the disposable glass pipette (4.6 cm) that is used for delivery by applying a controlled puff of air over the filter paper.
(§3) Each of the single or mixtures of fatty acids described above (see Table 11) and a control (air) are tested on an antenna: Air or filter paper pieces with each fatty acid or fatty acids mixture are delivered in succession every minute until an antenna is exposed to each cue and air three times (total test period=30 minutes). The antennal responses are recorded, and their amplitudes are measured using Syntech EAG software (Kirchzarten, Germany). The antennal responses of ≦12 female bees per species are recorded. […]

[4] = system: O. bucephala female antennae; assay: EAG response to specific fatty acids and mixtures; design: species or system Osmia bucephala; settings: O. bucephala (n = 8); 100 CE
Text: as §1, §2, §3

[5] = system: O. cornifrons female antennae; assay: EAG response to specific fatty acids and mixtures; design: species or system Osmia cornifrons; settings: O. cornifrons (n = 12); 100 CE
Text: as §1, §2, §3

Compound: CCCCCCCCCC(=O)O [Decanoic acid, decanoic acid]
- females found in artificial nest sites, range [1]: 4-15
- Cells/replicate [1]: 13.4 ± 6.13
- Nests/replicate [1]: 2.6 ± 1.17
- Females/date [1]: 10.2 ± 1.14
- relative evaporation of blend components [2]: evaporated much faster than tetradecanoic acid and dodecanoic acid
- Mean Amplitude ± SE [3]: −0.98 ± 0.06
- Mean Amplitude ± SE [4]: −1.31 ± 0.10
- Mean Amplitude ± SE [5]: −0.89 ± 0.06

Compound: CCCCCCCCCCCC(=O)O [Dodecanoic acid, dodecanoic acid]
- Cells/replicate [1]: 8.8 ± 7.40
- Nests/replicate [1]: 1.4 ± 1.17
- Females/date [1]: 3.4 ± 0.67
- Mean Amplitude ± SE [3]: −0.41 ± 0.03
- Mean Amplitude ± SE [4]: −0.83 ± 0.06
- Mean Amplitude ± SE [5]: −0.43 ± 0.04

Compound: CCCCCCCCCCCCCC(=O)O [Tetradecanoic acid, tetradecanoic acid]
- females found in artificial nest sites, range [1]: 0-1
- Cells/replicate [1]: 1.6 ± 1.6
- Nests/replicate [1]: 0.2 ± 0.2
- Females/date [1]: 0.4 ± 0.17
- Mean Amplitude ± SE [3]: −0.41 ± 0.03
- Mean Amplitude ± SE [4]: −0.92 ± 0.07
- Mean Amplitude ± SE [5]: −0.43 ± 0.04
